From PMC3923439, “Anti-inflammatory properties of a novel peptide interleukin 1 receptor antagonist” (Journal of Neuroinflammation, 2014)
Positions of bridges follow the written chain, without caps; N, C: chain ends. Chains are numbered I, II in the order given. No end group written: not given here.

Legend:
[1] = test system: experimental autoimmune encephalomyelitis; test: Experimental autoimmune encephalomyelitis; type: in vivo, rat; conditions: female Lewis rats
Protocol: Experimental autoimmune enchephalomyelitis was induced in female Lewis rats by guinea pig myelin basic protein (MBP) emulsified with CFA (Sigma-Aldrich) that contained 1.0 mg/ml heat-inactivated M. tuberculosis. While the animals were under inhalation anesthesia (3% isoflurane; Baxter), 200 μl of an emulsion that contained 200 μg of MBP were subcutaneously injected at the tail base (dpi 0). Between dpi 0 and 21, weight and clinical signs of EAE were recorded daily for all of the animals. Clinical signs were scored as follows: 0 (no abnormality), 0.5 (weak tail), 1 (limp tail), 2 (mild palsy of one or both hind legs), 3 (severe palsy of one or both hind legs), 4 (complete paralysis of one or both hind legs), 5 (paralysis of one or both hindlimbs and the beginning of paralysis of the forelimbs) and 6 (moribund). Animals with a clinical score ≥4 were immediately killed. From dpi 10 forward, the animals were treated once daily for 5 consecutive days with Ilantide-t (10 mg/kg, 1 ml/kg, s.c.) or PBS (1.0 ml/kg s.c.). Only animals that reached a clinical score ≥1 before dpi 14 were included in the study.

[2] = molecular target: T1, IL-1RI–IL-1β binding (Homo sapiens, UniProt P14778); test: SPR competition: binding of IL-1RI ectodomain to immobilized IL-1β in the presence of peptide; conditions: three experiments
T1 construct: purchased R&D Systems
T1 sequence (P14778 18-336 limits assumed): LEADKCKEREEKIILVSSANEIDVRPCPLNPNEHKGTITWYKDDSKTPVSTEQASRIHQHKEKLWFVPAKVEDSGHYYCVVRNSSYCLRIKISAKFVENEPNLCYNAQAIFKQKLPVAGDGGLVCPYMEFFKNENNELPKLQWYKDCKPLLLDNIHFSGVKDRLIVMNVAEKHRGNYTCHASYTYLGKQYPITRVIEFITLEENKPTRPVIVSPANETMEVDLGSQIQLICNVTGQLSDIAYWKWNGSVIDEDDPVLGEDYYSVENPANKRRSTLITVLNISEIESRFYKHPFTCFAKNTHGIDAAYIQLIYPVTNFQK
Protocol: The binding analysis was performed using a Biacore 2000 instrument (GE Healthcare Life Sciences) that contained 150 mM NaCl as running buffer at 25°C with 10 mM sodium phosphate (pH 7.4). The flow rate was 5 μl/min during immobilization. Ilantide peptide, IL-1β or IL-1Ra was immobilized on a CM4 sensor chip according to the manufacturer’s instructions, after which the recombinant ectodomain of IL-1RI (R&D Systems) was injected. The neural cell adhesion molecule (NCAM) immunoglobulin modules 1 and 2 (Ig1 and Ig2) were used as a negative control protein [9]. The data were analyzed using nonlinear curve-fitting with the manufacturer’s software.
Figure 2 Interaction between Ilantide, interleukin 1β, and interleukin 1 receptor antagonist and soluble IL-1 receptor type I. Binding was studied using surface plasmon resonance analysis. […] Binding is expressed as the response difference between the binding of IL-1 receptor type I (IL-1RI) to the sensor chip with the immobilized peptide, IL-1β, or IL-Ra and a blank sensor chip. […] The results from three experiments are expressed as mean RU ± SEM. **P < 0.01 and ***P < 0.001 compared with binding of IL-1RI alone to IL-1β (one-way analysis of variance followed by the Newman-Keuls post hoc test).

[3] = test system: LPS-induced neuroinflammation; test: Lipopolysaccharide-induced impairment of social behavior; type: in vivo; conditions: rat
Protocol: The peripheral administration of LPS, the active fragment of bacterial endotoxin, results in an increase in the plasma levels of all proinflammatory cytokines and behavioral depression. LPS-induced behavioral depression was assessed by measuring the reduction of the duration of social interaction during 4-minute sessions. Six- to seven-week-old rats were handled for five days, habituated to the test cages and the experiment room and trained for social interaction with three-week-old juvenile rats introduced into the test cage for four minutes two days before the actual experiment. On the day of the experiment, the rats were intraperitoneally injected (i.p.) with saline or LPS (Escherichia coli 0111:B4; Sigma-Aldrich) dissolved in saline (250 μg/kg). Immediately after the i.p. injection, Ilantide-t (Ila; 10 mg/kg, equivalent to 2.1 μmol/kg), Ana ([…], equivalent to 5.8 μmol/kg) or saline was injected subcutaneously. The volume of all of the injections was 1.0 ml/kg. Six experimental groups were used: vehicle i.p./vehicle s.c. (veh/veh; n = 10), vehicle i.p./Ilantide-t s.c. (veh/Ila; n = 8), vehicle i.p./Ana s.c. (veh/Ana; n = 9), LPS i.p./vehicle s.c. (LPS/veh; n = 10), LPS i.p./Ilantide-t s.c. (LPS/Ila; n = 11) and LPS i.p./Ana s.c. (LPS/Ana; n = 11). The injections and weighing of the rats were performed immediately after the first test session (0 h), and the animals were tested and weighed again 2, 4, 6, 8, and 24 hours later. Different juvenile animals were presented on each occasion. Social interaction consisted of anogenital sniffing, licking and chewing the fur of the juveniles by the experimental animals and was monitored with a video camera. […] The duration of social interaction at each time point is expressed as the percentage of baseline values and was averaged for each experimental group. Social interaction was scored by an observer who was blinded to the treatment of the animals. For evaluation of levels of pro- and anti-inflammatory cytokines in blood, rats were injected with LPS and then immediately with either vehicle (n = 8) or Ilantide-t (n = 8) as described above. In addition, a control group of animals (n = 4) was treated with Ilantide-t alone (control). Blood samples were collected at 0, 2 and 6 hours after injections as described for the pharmacokinetics study and stored at -20°C until use. The levels of IL-6, IFN-γ and IL-10 were determined using corresponding rat ELISA kits according to the manufacturer’s protocols (all from BD Biosciences, San Diego, CA, USA).

[4] = 10 mg/kg s.c. once daily dpi 10 to 14
[5] = 10 mg/kg s.c. once daily for 5 days

Substance: I: SGRKSSKMQAKK-NH2 / II: SGRKSSKMQAK / III: SGRKSSKMQA / IV: SGRKSSKMQA (amide I:11-IV:C, I:12-II:C, II:11-III:C; C-terminus assumed) [Ilantide-t]
- Clinical signs of EAE [1, 4]: attenuated
- Effect on weight change or survival in EAE [1, 4]: no significant effects
- Mean clinical signs of EAE versus vehicle, first and second days after onset [1, 5]: significantly lower
- Mean clinical signs of EAE versus vehicle, later time points [1, 5]: no difference
- Inhibition of binding between IL-1RI and IL-1β [2]: dose-dependently inhibited
- IL-10 plasma levels ([3]; 2 hours after LPS administration, Ilantide-t 10 mg/kg s.c., ELISA, P < 0.01): increase in IL-10 plasma levels
- Plasma levels of proinflammatory cytokines (IL-6 and IFN-γ) ([3]; 6 hours following LPS injection, Ilantide-t 10 mg/kg s.c., ELISA, tendency toward reduction): not statistically significant
- Effect on LPS-induced body weight decrease ([3]; 24 hours after LPS 250 μg/kg i.p., Ilantide-t 10 mg/kg, Ana 100 mg/kg s.c., P < 0.05): attenuated the anorexigenic effect of LPS
- Effect on LPS-induced depression of social activity (sickness behavior) ([3]; LPS 250 μg/kg i.p., Ilantide-t 10 mg/kg s.c., Ana 100 mg/kg s.c., 2 to 24 hours): attenuated social depression
